The record followed here is the supplement of paper PMC10307832.

For one assay, the system named is LCLC-97TM1. Nature of the assay: relative viability (nuclei count vs DMSO), 5 days (fraction); higher = more cells survive. Particulars: first compound 0.6325 µM. The method in brief: (§1)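 Lung cancer cell lines were seeded in 1536-well plates and dosed by pin tool the next day, with either a single drug or a fixed anchor-drug dose combined with five library-drug doses (not always all listed) spaced in √10 steps. Five days later, one step fixed the cells and stained their nuclei (final 0.05% Triton X-100, 1% formaldehyde, 1 ug/ml Hoechst), and nuclei were counted on 4× images. Relative viability is the nuclei count in treated wells divided by the count in vehicle wells, and each value is the median of duplicate plates.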
`COCC1(CO)C(=O)C2CCN1CC2` (stereo not given) [PRIMA-1MET] + O=C(c1cc(Cc2n[nH]c(=O)c3ccccc23)ccc1F)N1CCN(C(=O)C2CC2)CC1 [Olaparib] (partner 8 µM) yielded a relative viability of 0.33.

The assay is the same for the next values; noted with them: first compound 2 µM.
`COCC1(CO)C(=O)C2CCN1CC2` (stereo not given) [PRIMA-1MET] + CC(C)C[C@H](NC(=O)[C@H](Cc1ccccc1)NC(=O)c1cnccn1)B(O)O [Bortezomib] (partner 0.002 µM) came in with a relative viability of 0.533.

`COCC1(CO)C(=O)C2CCN1CC2` (stereo not given) [PRIMA-1MET] + CC(=O)Nc1cccc(-n2c(=O)n(C3CC3)c(=O)c3c(Nc4ccc(I)cc4F)n(C)c(=O)c(C)c32)c1 [Trametinib] (partner 0.02 µM) showed a relative viability of 0.179.

Molecule `COCC1(CO)C(=O)C2CCN1CC2` (stereo not given) [PRIMA-1MET] + Nc1ncn([C@H]2C[C@H](O)[C@@H](CO)O2)c(=O)n1 [Decitabine] (partner 2 µM) registered a relative viability of 0.209.

The molecule `COCC1(CO)C(=O)C2CCN1CC2` (stereo not given) [PRIMA-1MET] + O=C(c1cc(Cc2n[nH]c(=O)c3ccccc23)ccc1F)N1CCN(C(=O)C2CC2)CC1 [Olaparib] (partner 8 µM) showed a relative viability of 0.461.

In turn, `COCC1(CO)C(=O)C2CCN1CC2` (stereo not given) [PRIMA-1MET] + C[C@@H](Oc1cc(-c2cnn(C3CCNCC3)c2)cnc1N)c1c(Cl)ccc(F)c1Cl [Crizotinib] (partner 1 µM) came in with a relative viability of 0.378.

The assay is the same for the next values; noted with them: first compound 6.325 µM.
In the case of `COCC1(CO)C(=O)C2CCN1CC2` (stereo not given) [PRIMA-1MET] + CC(C)C[C@H](NC(=O)[C@H](Cc1ccccc1)NC(=O)c1cnccn1)B(O)O [Bortezomib] (partner 0.002 µM), the relative viability turned out to be 0.47.

In the case of `COCC1(CO)C(=O)C2CCN1CC2` (stereo not given) [PRIMA-1MET] + CC(=O)Nc1cccc(-n2c(=O)n(C3CC3)c(=O)c3c(Nc4ccc(I)cc4F)n(C)c(=O)c(C)c32)c1 [Trametinib] (partner 0.02 µM), the relative viability was found to be 0.151.

Turning to `COCC1(CO)C(=O)C2CCN1CC2` (stereo not given) [PRIMA-1MET] + Nc1ncn([C@H]2C[C@H](O)[C@@H](CO)O2)c(=O)n1 [Decitabine] (partner 2 µM), the relative viability is 0.153.

`COCC1(CO)C(=O)C2CCN1CC2` (stereo not given) [PRIMA-1MET] + O=C(c1cc(Cc2n[nH]c(=O)c3ccccc23)ccc1F)N1CCN(C(=O)C2CC2)CC1 [Olaparib] (partner 8 µM): the relative viability is 0.347.

`COCC1(CO)C(=O)C2CCN1CC2` (stereo not given) [PRIMA-1MET] + C[C@@H](Oc1cc(-c2cnn(C3CCNCC3)c2)cnc1N)c1c(Cl)ccc(F)c1Cl [Crizotinib] (partner 1 µM) had a relative viability of 0.234.

The same assay, now with this note: first compound 20 µM.
The molecule `COCC1(CO)C(=O)C2CCN1CC2` (stereo not given) [PRIMA-1MET] + CC(C)C[C@H](NC(=O)[C@H](Cc1ccccc1)NC(=O)c1cnccn1)B(O)O [Bortezomib] (partner 0.002 µM) gave a relative viability of 0.0592.

The molecule `COCC1(CO)C(=O)C2CCN1CC2` (stereo not given) [PRIMA-1MET] + CC(=O)Nc1cccc(-n2c(=O)n(C3CC3)c(=O)c3c(Nc4ccc(I)cc4F)n(C)c(=O)c(C)c32)c1 [Trametinib] (partner 0.02 µM) registered a relative viability of 0.197.

Molecule `COCC1(CO)C(=O)C2CCN1CC2` (stereo not given) [PRIMA-1MET] + Nc1ncn([C@H]2C[C@H](O)[C@@H](CO)O2)c(=O)n1 [Decitabine] (partner 2 µM) came in with a relative viability of 0.246.

For the molecule `COCC1(CO)C(=O)C2CCN1CC2` (stereo not given) [PRIMA-1MET] + O=C(c1cc(Cc2n[nH]c(=O)c3ccccc23)ccc1F)N1CCN(C(=O)C2CC2)CC1 [Olaparib] (partner 8 µM), the relative viability is 0.236.

Molecule `COCC1(CO)C(=O)C2CCN1CC2` (stereo not given) [PRIMA-1MET] + C[C@@H](Oc1cc(-c2cnn(C3CCNCC3)c2)cnc1N)c1c(Cl)ccc(F)c1Cl [Crizotinib] (partner 1 µM) displayed a relative viability of 0.0997.

The next assay relates to NCI-H2170. The description is as above. Particulars: first compound 0.2 µM. In short, it runs like this:
as §1
For the molecule `COCC1(CO)C(=O)C2CCN1CC2` (stereo not given) [PRIMA-1MET] + CC(=O)Nc1cccc(-n2c(=O)n(C3CC3)c(=O)c3c(Nc4ccc(I)cc4F)n(C)c(=O)c(C)c32)c1 [Trametinib] (partner 0.02 µM), the relative viability is 0.914.

Take `COCC1(CO)C(=O)C2CCN1CC2` (stereo not given) [PRIMA-1MET] + Nc1ncn([C@H]2C[C@H](O)[C@@H](CO)O2)c(=O)n1 [Decitabine] (partner 2 µM): the relative viability is 0.42.

Consider `COCC1(CO)C(=O)C2CCN1CC2` (stereo not given) [PRIMA-1MET] + O=C(c1cc(Cc2n[nH]c(=O)c3ccccc23)ccc1F)N1CCN(C(=O)C2CC2)CC1 [Olaparib] (partner 8 µM), for which the relative viability is 0.608.

Molecule `COCC1(CO)C(=O)C2CCN1CC2` (stereo not given) [PRIMA-1MET] + C[C@@H](Oc1cc(-c2cnn(C3CCNCC3)c2)cnc1N)c1c(Cl)ccc(F)c1Cl [Crizotinib] (partner 1 µM) came in with a relative viability of 1.38.

The same assay, now with this note: first compound 0.6325 µM.
Turning to `COCC1(CO)C(=O)C2CCN1CC2` (stereo not given) [PRIMA-1MET] + CC(=O)Nc1cccc(-n2c(=O)n(C3CC3)c(=O)c3c(Nc4ccc(I)cc4F)n(C)c(=O)c(C)c32)c1 [Trametinib] (partner 0.02 µM), the relative viability worked out at 0.911.

`COCC1(CO)C(=O)C2CCN1CC2` (stereo not given) [PRIMA-1MET] + Nc1ncn([C@H]2C[C@H](O)[C@@H](CO)O2)c(=O)n1 [Decitabine] (partner 2 µM) came in with a relative viability of 0.324.

The molecule `COCC1(CO)C(=O)C2CCN1CC2` (stereo not given) [PRIMA-1MET] + O=C(c1cc(Cc2n[nH]c(=O)c3ccccc23)ccc1F)N1CCN(C(=O)C2CC2)CC1 [Olaparib] (partner 8 µM) displayed a relative viability of 0.539.

`COCC1(CO)C(=O)C2CCN1CC2` (stereo not given) [PRIMA-1MET] + C[C@@H](Oc1cc(-c2cnn(C3CCNCC3)c2)cnc1N)c1c(Cl)ccc(F)c1Cl [Crizotinib] (partner 1 µM) gave a relative viability of 1.13.

The assay is the same for the next values; noted with them: first compound 2 µM.
Regarding `COCC1(CO)C(=O)C2CCN1CC2` (stereo not given) [PRIMA-1MET] + CC(=O)Nc1cccc(-n2c(=O)n(C3CC3)c(=O)c3c(Nc4ccc(I)cc4F)n(C)c(=O)c(C)c32)c1 [Trametinib] (partner 0.02 µM), the relative viability came to 0.887.

`COCC1(CO)C(=O)C2CCN1CC2` (stereo not given) [PRIMA-1MET] + Nc1ncn([C@H]2C[C@H](O)[C@@H](CO)O2)c(=O)n1 [Decitabine] (partner 2 µM): the relative viability is 0.43.

Consider `COCC1(CO)C(=O)C2CCN1CC2` (stereo not given) [PRIMA-1MET] + O=C(c1cc(Cc2n[nH]c(=O)c3ccccc23)ccc1F)N1CCN(C(=O)C2CC2)CC1 [Olaparib] (partner 8 µM), for which the relative viability turned out to be 0.649.

The molecule `COCC1(CO)C(=O)C2CCN1CC2` (stereo not given) [PRIMA-1MET] + C[C@@H](Oc1cc(-c2cnn(C3CCNCC3)c2)cnc1N)c1c(Cl)ccc(F)c1Cl [Crizotinib] (partner 1 µM) showed a relative viability of 1.02.

Staying with this assay, now noted: first compound 6.325 µM.
Turning to `COCC1(CO)C(=O)C2CCN1CC2` (stereo not given) [PRIMA-1MET] + CC(=O)Nc1cccc(-n2c(=O)n(C3CC3)c(=O)c3c(Nc4ccc(I)cc4F)n(C)c(=O)c(C)c32)c1 [Trametinib] (partner 0.02 µM), the relative viability was 0.975.

In turn, `COCC1(CO)C(=O)C2CCN1CC2` (stereo not given) [PRIMA-1MET] + Nc1ncn([C@H]2C[C@H](O)[C@@H](CO)O2)c(=O)n1 [Decitabine] (partner 2 µM) yielded a relative viability of 0.457.
